Source: article PMC6128881, “Novel insight into the reaction of nitro, nitroso and hydroxylamino benzothiazinones and of benzoxacinones with Mycobacterium tuberculosis DprE1” (Scientific Reports, 2018)
“And” between values parts separate entries of the source, which are not always exact repeats. Equal values may be shown once.

Assays:
M. smegmatis [1] = assay: MIC against M. smegmatis (literature); assay type: cell-based; conditions: from literature values
M. smegmatis DprE1 = test system: M. smegmatis DprE1; set-up: method as in PMID 22956199; conditions: cited from earlier work
M. smegmatis [2] = test system: M. smegmatis; set-up: method as in PMID 22956199; conditions: cited from earlier work

Compound: C[C@H]1COC2(CCN(c3nc(=O)c4cc(C(F)(F)F)cc(NO)c4s3)CC2)O1 [BTZ046]
- fold by which MIC against M. smegmatis is lower than the enzymatic IC50 (M. smegmatis [1]): approximately 8 fold
- time dependent inhibition of M. smegmatis DprE1 (M. smegmatis DprE1): not observed
- IC50 (M. smegmatis DprE1; read-out: M. smegmatis DprE1 enzymatic IC50): 20 µM
- MIC against M. smegmatis (M. smegmatis [2]): 1000 ng/ml and 2.4 μM
